# In the supplement of paper PMC10307832:
# Assays:
# Test in all cases: relative viability (nuclei count vs DMSO), 5 days (fraction); higher = more cells survive
# Crizotinib + Luminespib = compound: C[C@@H](Oc1cc(-c2cnn(C3CCNCC3)c2)cnc1N)c1c(Cl)ccc(F)c1Cl [Crizotinib] + CCNC(=O)c1noc(-c2cc(C(C)C)c(O)cc2O)c1-c1ccc(CN2CCOCC2)cc1 [Luminespib] (partner 0.01 µM)
# In short: (§1)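 Lung cancer cell lines in 1536-well plates got either a single drug or a fixed anchor-drug dose together with five library-drug doses (not always all listed) in √10 steps, by pin tool, on the day after seeding. Nuclei were counted after 5 days, and relative viability is the treated-to-vehicle ratio of nuclei counts. Values are medians of duplicate plates.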
# Crizotinib + Alpelisib = compound: C[C@@H](Oc1cc(-c2cnn(C3CCNCC3)c2)cnc1N)c1c(Cl)ccc(F)c1Cl [Crizotinib] + Cc1nc(NC(=O)N2CCC[C@H]2C(N)=O)sc1-c1ccnc(C(C)(C)C(F)(F)F)c1 [Alpelisib] (partner 2 µM)
# In short: as §1
# Crizotinib + Dasatinib = compound: C[C@@H](Oc1cc(-c2cnn(C3CCNCC3)c2)cnc1N)c1c(Cl)ccc(F)c1Cl [Crizotinib] + Cc1nc(Nc2ncc(C(=O)Nc3c(C)cccc3Cl)s2)cc(N2CCN(CCO)CC2)n1 [Dasatinib] (partner 0.075 µM)
# In short: as §1
# Crizotinib + Pemetrexed = compound: C[C@@H](Oc1cc(-c2cnn(C3CCNCC3)c2)cnc1N)c1c(Cl)ccc(F)c1Cl [Crizotinib] + Nc1nc2[nH]cc(CCc3ccc(C(=O)N[C@@H](CCC(=O)O)C(=O)O)cc3)c2c(=O)[nH]1 [Pemetrexed] (partner 0.2 µM)
# In short: as §1
Cell Line,relative viability (Crizotinib + Luminespib; first compound 0.01 µM),relative viability (Crizotinib + Luminespib; first compound 0.03162 µM),relative viability (Crizotinib + Luminespib; first compound 0.3162 µM),relative viability (Crizotinib + Alpelisib; first compound 0.1 µM),relative viability (Crizotinib + Alpelisib; first compound 0.3162 µM),relative viability (Crizotinib + Alpelisib; first compound 1 µM),relative viability (Crizotinib + Dasatinib; first compound 0.01 µM),relative viability (Crizotinib + Dasatinib; first compound 0.03162 µM),relative viability (Crizotinib + Dasatinib; first compound 0.1 µM),relative viability (Crizotinib + Dasatinib; first compound 0.3162 µM),relative viability (Crizotinib + Dasatinib; first compound 1 µM),relative viability (Crizotinib + Pemetrexed; first compound 0.01 µM),relative viability (Crizotinib + Pemetrexed; first compound 0.03162 µM),relative viability (Crizotinib + Pemetrexed; first compound 0.1 µM),relative viability (Crizotinib + Pemetrexed; first compound 0.3162 µM),relative viability (Crizotinib + Pemetrexed; first compound 1 µM),relative viability (Crizotinib + Alpelisib; first compound 0.01 µM),relative viability (Crizotinib + Alpelisib; first compound 0.03162 µM),relative viability (Crizotinib + Luminespib; first compound 0.1 µM),relative viability (Crizotinib + Luminespib; first compound 1 µM)
201T,1.01,1.07,1.06,1.03,1.04,1.06,0.599,0.628,0.614,0.548,0.569,0.296,0.279,0.32,0.324,0.331,–,–,–,–
A549,–,–,–,0.738,0.677,0.793,–,–,–,–,–,–,–,–,–,–,0.657,0.804,–,–
A-427,0.91,0.904,–,1.11,–,1.06,0.696,0.765,0.687,–,0.719,0.967,0.954,0.957,–,–,1.04,1.05,0.946,0.963
ABC-1,–,0.865,0.496,1.22,1.02,0.976,–,0.534,0.54,0.501,0.616,–,–,–,–,–,0.964,1.15,0.628,–
BEN,0.504,0.301,0.198,0.864,1.26,1.12,0.295,0.311,0.27,0.224,0.312,0.726,0.741,0.739,0.596,0.702,0.925,0.992,0.38,0.549
CAL-12T,0.297,0.339,–,1.28,1.13,1.36,0.407,0.47,0.394,–,0.299,1.09,1.09,1.06,1.19,1.02,1.19,1.35,0.232,0.201
COR-L23,0.655,0.665,0.775,0.659,0.758,0.665,0.508,0.424,0.519,0.437,0.533,0.19,0.189,0.201,0.207,0.199,0.81,0.77,0.656,0.687
COR-L 105,0.686,0.859,0.804,0.972,0.88,0.828,0.36,0.328,0.324,0.303,0.257,1.04,1.16,1,1.24,1.07,–,0.872,0.712,0.769
Calu-6,–,–,–,0.988,0.925,1.06,–,–,–,–,–,–,–,–,–,–,0.944,–,–,–
ChaGo-K-1,0.438,0.546,0.526,–,–,–,0.58,0.573,0.487,0.424,0.624,0.253,0.249,0.253,0.241,0.261,–,–,0.517,0.747
EBC-1,–,–,–,0.543,0.202,0.269,–,–,–,–,–,–,–,–,–,–,0.746,0.823,–,–
EKVX,0.953,–,0.939,0.792,0.905,0.864,0.372,0.572,0.514,0.492,0.648,0.362,0.414,0.404,0.383,0.327,0.849,0.967,0.947,0.865
EMC-BAC-2,1.12,1.25,1.16,0.715,–,0.781,0.369,0.313,0.282,0.363,0.331,0.442,0.419,0.444,–,0.448,0.76,0.818,1.09,1.22
EPLC-272H,0.236,0.343,0.262,0.942,0.864,1.02,0.426,0.382,0.445,0.366,0.401,0.298,0.355,0.397,0.37,0.402,0.862,0.854,0.197,0.577
H3255,0.928,0.971,0.743,0.705,0.62,0.639,0.381,0.462,0.422,0.393,0.258,0.556,0.553,0.592,0.54,0.557,0.622,0.73,0.831,–
HARA,0.819,0.77,–,0.863,0.881,0.767,0.28,0.279,0.256,–,0.198,0.222,0.242,0.257,0.183,0.236,0.859,0.836,0.708,0.682
HCC-15,0.382,0.409,–,0.906,0.848,0.956,0.557,0.573,0.639,–,0.562,0.234,0.222,0.233,0.209,0.213,0.846,0.938,0.443,0.334
HCC-44,1.03,0.99,1.05,0.853,0.744,0.815,–,–,–,–,–,0.603,0.648,0.689,0.593,0.665,0.808,0.801,0.988,1.06
HCC-78,–,–,–,0.299,0.279,0.223,–,0.335,0.448,0.361,0.322,0.88,0.865,0.889,0.855,–,0.278,0.292,–,–
HCC-366,–,–,–,0.382,–,0.343,0.592,0.649,0.618,–,0.458,0.166,0.154,0.167,–,0.202,0.547,0.485,–,–
HCC-827,0.542,0.651,0.52,0.938,0.859,–,0.287,0.289,0.255,0.225,0.326,0.268,0.183,0.267,0.274,0.261,0.896,0.944,0.784,0.646
